According to ChEMBL document CHEMBL1149471, “Pharmacophore-based virtual screening: the discovery of novel methionyl-tRNA synthetase inhibitors” (Bioorg Med Chem Lett, 2006):

molecular target: Methionine--tRNA ligase (Escherichia coli K-12, UniProt P00959); assay: Inhibition of Escherichia coli MetRS assessed as decrease in [35S]methionyl tRNAMet production by SPA
Sequence (P00959 whole entry): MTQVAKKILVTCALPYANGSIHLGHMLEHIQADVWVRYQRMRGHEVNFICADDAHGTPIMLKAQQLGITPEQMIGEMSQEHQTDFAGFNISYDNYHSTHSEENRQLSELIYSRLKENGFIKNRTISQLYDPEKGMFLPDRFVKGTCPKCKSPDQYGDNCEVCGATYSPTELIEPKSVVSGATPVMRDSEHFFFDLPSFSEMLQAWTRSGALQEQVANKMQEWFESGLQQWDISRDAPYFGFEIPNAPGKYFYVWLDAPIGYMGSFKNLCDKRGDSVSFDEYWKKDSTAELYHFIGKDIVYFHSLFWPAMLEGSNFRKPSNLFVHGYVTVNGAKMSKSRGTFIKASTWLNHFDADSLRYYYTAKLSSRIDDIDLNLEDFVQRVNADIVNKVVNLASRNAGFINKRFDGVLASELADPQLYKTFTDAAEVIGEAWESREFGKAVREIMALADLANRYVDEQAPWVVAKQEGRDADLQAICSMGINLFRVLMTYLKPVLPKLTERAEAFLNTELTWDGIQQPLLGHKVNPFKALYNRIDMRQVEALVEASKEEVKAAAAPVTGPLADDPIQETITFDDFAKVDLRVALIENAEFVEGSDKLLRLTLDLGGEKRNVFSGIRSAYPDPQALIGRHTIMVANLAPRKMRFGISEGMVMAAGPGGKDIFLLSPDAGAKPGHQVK

IC50 | Compound
30.5 µM | O=C(CC(=O)Nc1ccccc1C(=O)O)Nc1nc2ccc(Br)cc2s1
0.237 µM | O=C(CNC(=O)c1cccs1)N/N=C/c1ccc(C(=O)O)cc1
47.7 µM | NS(=O)(=O)c1ccc(CCNC(=S)Nc2cccc(C(F)(F)F)c2)cc1
22.8 µM | O=C(CNC(=O)c1cccc(Br)c1)N/N=C/c1ccc(C(=O)O)cc1
